Assay results as given in US11246818B2, “Peptides and compositions for use in cosmetics” (LIPOTRUE, S.L., priority 2017, dated 2022).
Residues, ends and D or L forms follow the SMILES beside them.

How the values were obtained:
[1] = Trolox Equivalent Antioxidant Capacity (TEAC), ABTS Decolorization Assay; assay type: biochemical
Protocol: As positive controls of the assay, ascorbic acid 2-glucoside (hereinafter, AA-2G) and magnesium ascorbyl phosphate (hereinafter, MAP) were tested.
TEAC assay was used in this case. Said assay measures the antioxidant capacity of a given substance, as compared to the standard, Trolox, an analogue of Vitamin E.
Antioxidant capacity was measured using the ABTS Decolorization Assay. In this assay, the pre-formed radical monocation of 2,2′-azinobis-(3-ethylbenzothiazoline-6-sulfonic acid) (ABTS*+) was generated by oxidation of ABTS with potassium persulfate and was reduced in the presence of antioxidants (Ac-SEQ ID NO: 1-NH2, Ac-SEQ ID NO: 2-NH2, Ac-SEQ ID NO: 3-NH2 or Ferulic acid-SEQ ID NO: 2-NH2). The ABTS.+ has a blue-green color, with maximum absorptions at 650, 734 and 820 nm. Antioxidants in the sample reduce ABTS.+ suppressing this color production to a degree that is proportional to their concentrations and antioxidant capacity. Quantification of absorbance was conducted at 734 nm using a Polarstar Omega equipment (BMG Labtech).

[2] = system: Primary human epidermal melanocytes; assay: Brightening activity: intracellular melanin content; assay type: cell-based; conditions: 7 days, kojic acid 10 and 50 μM
Protocol: Two concentrations of kojic acid were used as positive control.
Kojic acid was used as positive control.
Primary human epidermal melanocytes were incubated in 6-well plates for 4 days and then treated with the compounds to be analysed (Ac-SEQ ID NO: 1-NH2, Ac-SEQ ID NO: 2-NH2, Ac-SEQ ID NO: 3-NH2 or Ferulic acid-SEQ ID NO: 2-NH2) for 7 days. After treatment, cells were homogenized an intracellular melanin content was quantified by absorbance at 450 nm by Multiskan FC (Thermo Fisher Scientific, MA, USA).

CC(=O)N[C@@H](CC(=O)O)C(=O)N[C@@H](Cc1ccc(O)cc1)C(=O)N[C@@H](CCCCN)C(=O)N[C@H](C(N)=O)C(C)C [Ac-SEQ ID NO: 1-NH2, Ac-Asp-Tyr-Lys-Val-NH2] (Ac-DYKV-NH2)
trolox equivalents ([1]; 0.01 mg/mL): 15 µM | trolox equivalents ([1]; 0.05 mg/mL): 24 µM | trolox equivalents ([1]; 0.1 mg/mL): 94 µM | brightening or whitening activity compared with kojic acid ([2]; all the concentrations tested (0.01, 0.05, 0.1 mg/ml)): significantly higher brightening or whitening activity | increased brightening activity relative to the activity of the two concentrations of kojic acid ([2]; all the concentrations tested): two to more than four times
